Experimental data published in ChEMBL document CHEMBL5723582, “Data for DCP probe T-10430” (2024).

Biological target: Leukotriene B4 receptor 1 (Homo sapiens, UniProt Q15722)
Assay: IP-One assay (LTB4R), antagonist mode at up to 50 µM ( vs. 300 nM LTB4); call rule not given here
Type: functional
Design: compound concentration < 50 uM

Sequence of Leukotriene B4 receptor 1 (Q15722 whole entry): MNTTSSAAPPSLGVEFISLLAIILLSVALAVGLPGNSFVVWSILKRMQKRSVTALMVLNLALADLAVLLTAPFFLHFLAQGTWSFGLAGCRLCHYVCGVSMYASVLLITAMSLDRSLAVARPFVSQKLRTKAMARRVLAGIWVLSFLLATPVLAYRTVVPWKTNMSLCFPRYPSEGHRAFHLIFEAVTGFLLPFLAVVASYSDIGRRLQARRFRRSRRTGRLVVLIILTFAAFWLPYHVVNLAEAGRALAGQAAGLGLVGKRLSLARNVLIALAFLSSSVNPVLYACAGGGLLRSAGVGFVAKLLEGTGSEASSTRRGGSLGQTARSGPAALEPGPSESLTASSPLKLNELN

CCCCC(=O)N1CC2(CCN(c3ccccc3-c3nnn[nH]3)CC2)C1
EC50: > 50 µM (not active)
